Measurements published in patent US20240300946A1, “EGFR INHIBITORS” (Blueprint Medicines Corporation, priority 2021, published 2024).

What was measured:
[1] = target: T1, EGFR (L858R T790 M C797S) (Homo sapiens, UniProt P00533, C797S/L858R/T790M); test: Biochemical EGFR inhibition assay (Caliper mobility shift), LRTMCS mutant at 1 mM ATP; settings: read-out: LRTMCS (PH) IC50 (nM) @ 1 mM ATP (Num)
T1 construct: purchased SignalChem E10-122VG
Method: Inhibitory effects of the compounds of the disclosure were measured in biochemical assays that measure the phosphorylation activity of EGFR enzyme phosphorylates 2.5 micromolar 5-FAM-[…]-CONH2 peptide substrate (FL-Peptide 22, PerkinElmer, 760366) in the presence of adenosine-5′-triphosphate (ATP) and varying concentrations of the test compound in 100 mM 2-[4-(2-hydroxyethyl)piperazin-1-yl]ethanesulfonic acid (HEPES), pH 7.5, 10 mM MgCl2, 0.015% Brij-35, 1 mM dithiothreitol (DTT), 1.0% dimethylsulfoxide (DMSO). Assays were performed at 1.0 mM ATP or at ATP Km of the EGFR enzymes. Reactions proceeded until between 10% to 20% total peptides were phosphorylated at room temperature (25° C.) and were terminated with 35 mM 2,2′,2″,2′″-(ethane-1,2-diyldinitrilo)tetraacetic acid (EDTA). Product was detected using the Caliper mobility shift detection method where the phosphorylated peptide (product) and substrate were electrophoretically separated and measured. Percent activity was plotted against log concentration of compound and points to generate an apparent IC50. The following enzyme forms of EGFR were examples that were used in these assays: • EGFR WT (SignalChem, E10-112G) • EGFR (L858R T790 M C797S) (SignalChem, E10-122VG) • EGFR (d746-750) T790 M C797S (SignalChem, E10-122UG) • EGFR L858R (SignalChem, E10-122BG) • EGFR (d746-750) (SignalChem, E10-122JG)

[2] = system: phosphorylation of EGFR in NCI-H1975 cell line that harbors the EGFR L858R T790 M mutations; test: NCI-H1975 pEGFR AlphaLISA assay; format: cell-based; settings: Homo sapiens, NCI-H1975, NCI-H1975 cells, p-EGFR (Tyr1068), 4-5 hours incubation; read-out: Ext pEGFR H1975 GMean IC50 (nM) Protocol: @ Pharmaron AlphaLISA (Num)
Method: Inhibitory effects of the compounds of the disclosure were evaluated in cellular assays that measure level of intracellular phosphorylation of EGFR in NCI-H1975 cell line that harbors the EGFR L858R T790 M mutations (ATCC, CRL-5908) using AlphaLISA sureFire ultra p-EGFR (Tyr1068) assay kit (PerkinElmer, ALSU-PEGFR-A50K). The NCI-H1975 cells were seeded at 12.5K/well in 22 μL into 384 well opti plate (PerkinElmer, 6007299) and adhering overnight at 37° C./5% CO2. On the next day, the test compounds and DMSO control were added into H1975 cell plate followed by incubation at 37° C./5% CO2 for 4-5 hours. The cells were then spin down in the 384-well plate and lysed with 10 μL of 1× AlphaLISA lysis buffer followed by shaking at 600 rpm for 10 minutes at room temperature. After that, 5 μL of an acceptor bead mix was added to each well followed by incubation at room temperature for 1.5-2 h in dark. Then 5 μL of a donor bead mix was added to each well followed by overnight incubation at room temperature in dark. On the next day, the plate was read at a compatible plate reader to obtain pEGFR signal. Percent of pEGFR inhibition was plotted against log concentration of compounds to generate IC50 values.

T1 sequence (P00533 25-1210 T790M/C797S/L858R): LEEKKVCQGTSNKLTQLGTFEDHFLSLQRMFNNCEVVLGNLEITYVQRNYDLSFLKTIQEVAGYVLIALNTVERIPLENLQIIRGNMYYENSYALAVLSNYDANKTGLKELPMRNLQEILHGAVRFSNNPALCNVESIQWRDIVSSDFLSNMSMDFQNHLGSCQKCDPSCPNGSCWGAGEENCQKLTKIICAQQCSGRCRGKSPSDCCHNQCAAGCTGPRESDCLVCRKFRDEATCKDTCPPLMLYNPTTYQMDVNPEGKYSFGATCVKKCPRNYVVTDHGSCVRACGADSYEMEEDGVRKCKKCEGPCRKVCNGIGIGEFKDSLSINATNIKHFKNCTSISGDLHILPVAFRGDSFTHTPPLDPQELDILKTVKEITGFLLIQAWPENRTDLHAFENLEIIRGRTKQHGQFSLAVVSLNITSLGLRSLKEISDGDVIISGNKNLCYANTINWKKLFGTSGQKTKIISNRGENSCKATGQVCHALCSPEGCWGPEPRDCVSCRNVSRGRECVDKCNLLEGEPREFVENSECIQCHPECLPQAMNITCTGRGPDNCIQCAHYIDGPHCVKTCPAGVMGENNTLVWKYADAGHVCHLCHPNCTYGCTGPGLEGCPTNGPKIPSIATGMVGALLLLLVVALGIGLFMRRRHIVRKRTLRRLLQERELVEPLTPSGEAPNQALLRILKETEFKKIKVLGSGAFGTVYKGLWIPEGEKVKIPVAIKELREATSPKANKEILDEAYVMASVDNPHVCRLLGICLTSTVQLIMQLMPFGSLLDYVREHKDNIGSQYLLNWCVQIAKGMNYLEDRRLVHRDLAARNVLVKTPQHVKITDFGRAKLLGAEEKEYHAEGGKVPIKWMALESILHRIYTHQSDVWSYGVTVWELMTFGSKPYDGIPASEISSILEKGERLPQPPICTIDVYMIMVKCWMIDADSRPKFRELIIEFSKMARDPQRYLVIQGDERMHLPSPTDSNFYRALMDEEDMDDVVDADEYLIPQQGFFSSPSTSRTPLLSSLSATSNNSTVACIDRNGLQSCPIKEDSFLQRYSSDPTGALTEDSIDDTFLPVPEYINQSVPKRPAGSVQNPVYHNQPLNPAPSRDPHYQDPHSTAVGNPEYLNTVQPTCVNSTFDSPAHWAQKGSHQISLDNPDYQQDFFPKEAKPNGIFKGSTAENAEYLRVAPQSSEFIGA

Row | SMILES | IC50 [1] | IC50 [2]
1 | CC(C)c1cnc(N2CC(CS(C)(=O)=O)C2)c2cnc(Nc3ccnc(C4CCC4)n3)cc12 [Example 5, N-(2-cyclobutylpyrimidin-4-yl)-5-isopropyl-8-(3-((methylsulfonyl)methyl)azetidin-1-yl)-2,7-naphthyridin-3-amine] | 30 to 100 nM | > 50 nM
2 | CC(C)c1cnc(N2CC(CS(C)(=O)=O)C2)c2cnc(Nc3ccnc([C@H]4C[C@@H](O)C4)n3)cc12 [Example 6, (1s,3s)-3-(4-((5-isopropyl-8-(3-((methylsulfonyl)methyl)azetidin-1-yl)-2,7-naphthyridin-3-yl)amino)pyrimidin-2-yl)cyclobutan-1-ol] | 30 to 100 nM | > 50 nM
3 | CC(C)c1cnc(N2CC(CS(C)(=O)=O)C2)c2cnc(Nc3ccnc([C@H]4C[C@H](O)C4)n3)cc12 [Example 7, (1r,3r)-3-(4-((5-isopropyl-8-(3-((methylsulfonyl)methyl)azetidin-1-yl)-2,7-naphthyridin-3-yl)amino)pyrimidin-2-yl)cyclobutan-1-ol] | 15 to 20 nM | > 50 nM
4 | Cc1ncc(-c2nccc(Nc3cc4c(C(C)C)ncc(N5CC(CS(C)(=O)=O)C5)c4cn3)n2)s1 [Example 8, 5-isopropyl-8-(3-((methylsulfonyl)methyl)azetidin-1-yl)-N-(2-(2-methylthiazol-5-yl)pyrimidin-4-yl)-2,6-naphthyridin-3-amine] | ≤ 15 nM | < 10 nM
5 | CC(C)c1ncc(N2CC(CS(C)(=O)=O)C2)c2cnc(Nc3ccnc(-c4cnn(C)c4)n3)cc12 [Example 9, 5-isopropyl-N-(2-(1-methyl-1H-pyrazol-4-yl)pyrimidin-4-yl)-8-(3-((methylsulfonyl)methyl)azetidin-1-yl)-2,6-naphthyridin-3-amine] | ≤ 15 nM | 30 to 50 nM
6 | CC(C)c1ccc(N2CC(CS(C)(=O)=O)C2)c2cnc(Nc3ccnc(-c4cnn(C)c4)n3)cc12 [Example 10, 5-isopropyl-N-(2-(1-methyl-1H-pyrazol-4-yl)pyrimidin-4-yl)-8-(3-((methylsulfonyl)methyl)azetidin-1-yl)isoquinolin-3-amine] | ≤ 15 nM | 10 to 20 nM
7 | COc1ccc(-c2nccc(Nc3cc4c(C(C)C)ccc(N5CC(CS(C)(=O)=O)C5)c4cn3)n2)cn1 [Example 11, 5-isopropyl-N-(2-(6-methoxypyridin-3-yl)pyrimidin-4-yl)-8-(3-((methylsulfonyl)methyl)azetidin-1-yl)isoquinolin-3-amine] | 30 to 100 nM | > 50 nM
8 | CCS(=O)(=O)CC1CN(c2ccc(C(C)C)c3cc(Nc4ccnc(-c5cnn(C)c5)n4)ncc23)C1 [Example 12, 8-(3-((ethylsulfonyl)methyl)azetidin-1-yl)-5-isopropyl-N-(2-(1-methyl-1H-pyrazol-4-yl)pyrimidin-4-yl)isoquinolin-3-amine] | ≤ 15 nM | 10 to 20 nM
9 | CC(C)c1ccc(N2CC(CS(C)(=O)=O)C2)c2cnc(Nc3ccnc(-c4cccnc4)n3)cc12 [Example 13, 5-isopropyl-8-(3-((methylsulfonyl)methyl)azetidin-1-yl)-N-(2-(pyridin-3-yl)pyrimidin-4-yl)isoquinolin-3-amine] | ≤ 15 nM | 10 to 20 nM
10 | CC(C)c1ccc(N2CC(CS(C)(=O)=O)C2)c2cnc(Nc3ccnc(-c4cncc(Cl)c4)n3)cc12 [Example 14, N-(2-(5-chloropyridin-3-yl)pyrimidin-4-yl)-5-isopropyl-8-(3-((methylsulfonyl)methyl)azetidin-1-yl)isoquinolin-3-amine] | 30 to 100 nM | > 50 nM
11 | CC(C)c1ccc(N2CC(CS(C)(=O)=O)C2)c2cnc(Nc3ccnc(C4=CCC5(CC4)OCCO5)n3)cc12 [Example 15, N-(2-(1,4-dioxaspiro[4.5]dec-7-en-8-yl)pyrimidin-4-yl)-5-isopropyl-8-(3-((methylsulfonyl)methyl)azetidin-1-yl)isoquinolin-3-amine] | 15 to 20 nM | 30 to 50 nM
12 | CC(C)c1ccc(N2CC(CS(C)(=O)=O)C2)c2cnc(Nc3ccnc(C4CC(F)C4)n3)cc12 (stereo not drawn) [Example 26, N′-(2-(3-fluorocyclobutyl)pyrimidin-4-yl)-5-isopropyl-8-(3-((methylsulfonyl)methyl)azetidin-1-yl)isoquinolin-3-amine] | 30 to 100 nM | > 50 nM
